Data: patent US20050191612A1, “Method of screening insulin content enhancer” (priority 2002, published 2005)

How the values were obtained:
[1] = system: insulin promoter activity in mouse pancreatic β cell line NIT1 cells; assay: Insulin promoter reporter (plasmid InsPro) luciferase activity in NIT1 cells; assay type: cell-based; details: compound 30 μmol/L, treatment 31 hours, p<0.01
Experimental: A transfection reagent (LIPOFECTAMINE 2000; GIBCO BRL, or FuGENE6; Boeringer Mannheim) was used to introduce plasmid InsPro (1-10 ng) prepared in Example 2 to mouse pancreatic β cell line NIT1 cells (4×10^4 cells). The trasfected cells were seeded on a 96-well plate. A Dulbecco modified Eagles' medium (DMEM) or F-12 medium containing 10% fetal calf serum (FCS) was used as a medium. After the seeding, the cells were cultured for 18-20 hours. […] After the medium was aspirated, the cells were lysed with a cell lysing solution (cell lysis buffer LCβ; Toyo Ink Mfg.). A luciferase activity of each lysate was measured by a commercially available measuring kit (PicaGene Luminescent kit; Toyo Ink Mfg.) and a measuring apparatus (ML3000 microtiter plate luminometer; Dynatech Laboratories). […] Further, where the above procedure is repeated except for using a cell not expressing the polypeptide for a screening tool, as a control cell, instead of the cell for a screening tool, when the insulin promoter reporter activity is not increased in the control cell, it can be judged that such a test substance can activate the polypeptide consisting of the amino acid sequence of SEQ ID NO: 2.
Next, compounds A-E were evaluated in a manner similar to that described in Example 5. More particularly, a 96-well plate coated with collagen was used as the 96-well plate, and DMEM was used as the medium. […]

[2] = system: GK (Goto-Kakizaki) rats (type II diabetes models); assay: Glucose tolerance test for GK (Goto-Kakizaki) rats by one oral dose; assay type: in vivo, rat; details: 100 mg/kg orally, at 30 and 60 minutes after glucose administration
Experimental: (§1) SD rats (4 weeks old; CLEA JAPAN) were made to fast overnight, and 2 g/kg of glucose was orally administered. Compound A (100 mg/kg) had been intraperitoneally administered 5 minutes before the glucose administration. An appropriate amount of blood was taken at 0 minute, 30 minutes, 60 minutes, and 120 minutes after the glucose administration, and used for the measurement of a blood glucose level and a concentration of plasma insulin.
(§2) For measuring the blood glucose level, a supernatant obtained by mixing blood and 0.33 mol/L perchloric acid (blood:0.33 mol/L perchloric acid=1:10) and centrifuging the mixture (3000×g, 10 minutes, 4° C.) was used. For measuring the concentration of plasma insulin, a supernatant obtained by centrifuging blood (3000×g, 10 minutes, 4° C.) was used. Further, Glucose C test Wako (Wako) was used in the measurement of the blood glucose level, and a rat insulin assay system (Amersham) was used in the measurement of the concentration of plasma insulin.
Then, a glucose tolerance test for GK (Goto-Kakizaki) rats (type II diabetes models with incomplete insulin secretion; 7 weeks old; Charles River Japan) by one oral dose was carried out. The GK rat line was established by selectively mating wistar rats in accordance with an index of a poor tolerance in an oral glucose tolerance test, by Yoshio Goto, et al., School of Medicine, Tohoku University, in 1975. […]

[3] = system: SD rats; assay: Glucose tolerance test for SD rats by one oral dose; assay type: in vivo, rat; details: 100 mg/kg intraperitoneally 5 min before 2 g/kg oral glucose, at 30 minutes, p<0.05
Experimental: as §1, §2
FIG. 4 illustrates a time course of the concentration of plasma insulin (unit=ng/mL) after the oral administration of glucose, and FIG. 5 illustrates a time course of the blood glucose level (unit=mg/dL) after the oral administration of glucose. The mark “*” in FIGS. 4 and 5 denotes that a significant difference from the group to which compound A had not been administered was p<0.05 (Student's t-test).

S=C(OCCc1ccncc1)c1ccccc1 [compound A, 2-(pyridine-4-yl)ethyl thiobenzoate]
increased value of the reporter activity with respect to control group [1]: ≥ 1.5 times
increase of the blood glucose level by the glucose administration [2]: significantly suppressed
concentration of plasma insulin after glucose administration [3]: significant increase
increase of the blood glucose level by the glucose administration [3]: significantly suppressed
